Measured values taken from article PMC7483475, “The Sporomusa type Nfn is a novel type of electron-bifurcating transhydrogenase that links the redox pools in acetogenic bacteria” (Scientific Reports, 2020).
Blank lines part the entries; values can stand above or below the compound they belong to.

Key:
[1] = target: T1, Stn complex (Sporomusa type Nfn; StnABC) (Sporomusa ovata, UniProt A0A0U1KYI6+A0A0U1KYM9); test: protein precipitation and thin layer chromatography of released flavin; assay type: binding; details: bound flavin, loosely bound; FAD and FMN present in purification buffers
T1 construct: gene SpAn4DRAFT_2936; native purification from S. ovata cytoplasm, untagged; ~840 kDa tetrameric heterotrimer; identified by MALDI-TOF-MS; with Sporomusa type Nfn subunit A (NuoE-like, HydC/HndA-like [2Fe-2S] subunit)
T1 sequence (A0A0U1KYM9 1-584): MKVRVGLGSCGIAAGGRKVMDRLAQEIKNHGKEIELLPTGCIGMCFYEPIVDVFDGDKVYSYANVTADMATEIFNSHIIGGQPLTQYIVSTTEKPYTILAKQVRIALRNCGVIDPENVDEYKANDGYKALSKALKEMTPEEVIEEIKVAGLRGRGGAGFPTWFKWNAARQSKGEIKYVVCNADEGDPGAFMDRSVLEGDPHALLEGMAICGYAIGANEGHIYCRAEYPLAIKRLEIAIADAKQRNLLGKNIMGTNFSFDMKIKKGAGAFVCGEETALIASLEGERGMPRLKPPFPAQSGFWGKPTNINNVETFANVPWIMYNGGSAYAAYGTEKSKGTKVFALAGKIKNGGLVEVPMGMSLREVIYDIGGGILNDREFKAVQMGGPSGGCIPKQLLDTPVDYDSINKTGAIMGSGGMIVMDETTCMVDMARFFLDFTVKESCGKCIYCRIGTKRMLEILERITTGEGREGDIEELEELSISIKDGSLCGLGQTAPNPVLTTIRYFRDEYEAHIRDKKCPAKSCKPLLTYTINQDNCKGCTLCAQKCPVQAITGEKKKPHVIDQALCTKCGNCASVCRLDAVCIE
T1 sequence (A0A0U1KYI6 1-1172): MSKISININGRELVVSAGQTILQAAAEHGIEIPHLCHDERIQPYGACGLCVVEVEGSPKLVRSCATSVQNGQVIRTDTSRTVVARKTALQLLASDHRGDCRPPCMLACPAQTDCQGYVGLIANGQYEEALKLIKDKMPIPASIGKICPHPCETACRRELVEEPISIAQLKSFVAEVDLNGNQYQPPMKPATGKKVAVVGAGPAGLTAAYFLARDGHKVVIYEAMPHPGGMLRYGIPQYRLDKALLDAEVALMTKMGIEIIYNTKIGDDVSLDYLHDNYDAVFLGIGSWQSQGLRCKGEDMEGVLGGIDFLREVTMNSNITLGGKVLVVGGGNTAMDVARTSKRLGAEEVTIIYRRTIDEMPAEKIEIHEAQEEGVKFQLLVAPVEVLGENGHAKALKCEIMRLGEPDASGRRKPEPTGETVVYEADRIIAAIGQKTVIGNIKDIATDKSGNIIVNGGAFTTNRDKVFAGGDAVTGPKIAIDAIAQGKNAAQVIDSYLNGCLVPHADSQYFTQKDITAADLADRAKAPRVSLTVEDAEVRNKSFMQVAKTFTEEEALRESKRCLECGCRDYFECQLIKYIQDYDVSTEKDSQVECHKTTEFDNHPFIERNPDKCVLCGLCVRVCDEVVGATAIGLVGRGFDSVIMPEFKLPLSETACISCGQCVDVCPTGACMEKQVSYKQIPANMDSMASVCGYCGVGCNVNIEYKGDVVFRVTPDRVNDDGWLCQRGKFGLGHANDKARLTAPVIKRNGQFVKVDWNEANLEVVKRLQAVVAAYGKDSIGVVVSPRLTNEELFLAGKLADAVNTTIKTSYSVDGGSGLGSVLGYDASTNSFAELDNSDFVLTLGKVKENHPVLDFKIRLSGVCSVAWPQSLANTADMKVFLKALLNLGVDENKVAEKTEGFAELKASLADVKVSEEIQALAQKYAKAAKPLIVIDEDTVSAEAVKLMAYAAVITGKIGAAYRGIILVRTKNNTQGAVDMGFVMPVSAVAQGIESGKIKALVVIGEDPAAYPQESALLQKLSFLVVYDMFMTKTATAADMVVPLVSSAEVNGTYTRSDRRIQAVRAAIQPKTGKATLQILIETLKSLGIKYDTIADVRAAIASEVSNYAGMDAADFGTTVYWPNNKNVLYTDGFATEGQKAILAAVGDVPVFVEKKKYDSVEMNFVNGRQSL
T1 sequence (A0A0U1KYW8 1-178 partner): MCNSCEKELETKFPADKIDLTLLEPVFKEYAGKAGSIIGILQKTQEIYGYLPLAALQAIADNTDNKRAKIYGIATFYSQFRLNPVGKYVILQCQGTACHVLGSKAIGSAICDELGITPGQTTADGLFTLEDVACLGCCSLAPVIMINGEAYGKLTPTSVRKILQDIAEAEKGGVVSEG

StnC (strep-tagged) [2] = target: T2, StnC (strep-tagged) (Sporomusa ovata, UniProt A0A0U1KYI6); test: thin layer chromatography of bound flavin; assay type: binding; details: bound flavin of recombinant StnC
T2 construct: gene SpAn4DRAFT_2937; isolated subunit, N-terminal Strep-tag kept, E. coli BL21 (DE3) delta-iscR; translated from primers: N-term MWSHPQFEKSA-SKISININGR, C-term NFVNGRQSL
T2 sequence (A0A0U1KYI6 2-1172): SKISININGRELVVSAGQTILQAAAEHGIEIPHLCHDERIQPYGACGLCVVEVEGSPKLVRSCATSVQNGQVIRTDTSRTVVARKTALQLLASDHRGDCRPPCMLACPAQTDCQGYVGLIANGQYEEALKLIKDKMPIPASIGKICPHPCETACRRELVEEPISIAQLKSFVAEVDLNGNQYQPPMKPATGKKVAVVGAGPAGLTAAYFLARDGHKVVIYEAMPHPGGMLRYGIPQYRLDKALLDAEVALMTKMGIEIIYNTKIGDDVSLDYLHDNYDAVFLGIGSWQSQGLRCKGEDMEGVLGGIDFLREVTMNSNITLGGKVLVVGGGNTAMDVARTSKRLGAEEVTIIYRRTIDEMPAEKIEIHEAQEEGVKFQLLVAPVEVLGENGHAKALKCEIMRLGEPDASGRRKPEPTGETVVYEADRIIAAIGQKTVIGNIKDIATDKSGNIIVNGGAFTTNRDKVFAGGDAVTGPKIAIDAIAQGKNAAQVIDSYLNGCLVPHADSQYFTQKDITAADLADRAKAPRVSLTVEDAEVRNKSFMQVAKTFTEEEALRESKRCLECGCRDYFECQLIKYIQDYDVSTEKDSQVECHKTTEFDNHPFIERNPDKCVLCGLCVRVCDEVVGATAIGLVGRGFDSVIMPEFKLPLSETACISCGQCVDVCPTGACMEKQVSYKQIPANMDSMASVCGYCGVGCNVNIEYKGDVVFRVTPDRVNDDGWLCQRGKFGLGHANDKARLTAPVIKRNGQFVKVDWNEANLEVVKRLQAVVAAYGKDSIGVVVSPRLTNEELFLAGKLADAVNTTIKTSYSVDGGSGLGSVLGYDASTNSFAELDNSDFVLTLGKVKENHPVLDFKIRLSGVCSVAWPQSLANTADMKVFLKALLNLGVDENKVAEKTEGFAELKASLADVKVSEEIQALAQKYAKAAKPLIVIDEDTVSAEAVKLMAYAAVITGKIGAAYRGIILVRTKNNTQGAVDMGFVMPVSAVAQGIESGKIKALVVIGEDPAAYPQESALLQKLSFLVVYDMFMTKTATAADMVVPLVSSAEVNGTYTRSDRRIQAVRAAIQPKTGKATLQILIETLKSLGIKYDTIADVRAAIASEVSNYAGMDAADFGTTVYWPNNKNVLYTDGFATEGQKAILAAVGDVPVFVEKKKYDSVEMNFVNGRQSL

StnC (strep-tagged) [3] = target: T2, StnC (strep-tagged); test: spectrophotometric FMN reduction, […] nm; assay type: biochemical; details: electron acceptor, 0.2 mM FMN, 0.25 mM NADPH; 100 mM Tris/HCl pH 7.5, 20 °C
StnC (strep-tagged) [4] = target: T2, StnC (strep-tagged); test: spectrophotometric NADPH-dependent acceptor reduction; assay type: biochemical; details: acceptors methyl viologen, FAD, FMN or ferricyanide; 100 mM Tris/HCl pH 7.5, 20 °C
[5] = target: Sporomusa type Nfn (Stn) complex, heterotrimer of StnA, StnB and StnC (Sporomusa ovata); test: SEC; analytical gel filtration of the purified Stn complex on Superdex 200; heterotrimer to tetramer of heterotrimers

Compound: Cc1cc2nc3c(=O)[nH]c(=O)nc-3n(C[C@H](O)[C@H](O)[C@H](O)COP(=O)(O)OP(=O)(O)OC[C@H]3O[C@@H](n4cnc5c(N)ncnc54)[C@H](O)[C@@H]3O)c2cc1C [FAD]
- protein precipitation and thin layer chromatography of released flavin [1]: FAD was identified to be the only flavin bound
- thin layer chromatography of bound flavin (StnC (strep-tagged) [2]): The identity of bound Flavin was elucidated by TLC to be FAD.

Compound: Cc1cc2nc3c(=O)[nH]c(=O)nc-3n(C[C@H](O)[C@H](O)[C@H](O)COP(=O)(O)O)c2cc1C [FMN]
- spectrophotometric FMN reduction, 450 nm (StnC (strep-tagged) [3]): The purified protein exhibited NADPH oxidation with methyl viologen, FAD, FMN and ferricyanide

Compound: NC(=O)C1=CN([C@@H]2O[C@H](COP(=O)(O)OP(=O)(O)OC[C@H]3O[C@@H](n4cnc5c(N)ncnc54)[C@H](OP(=O)(O)O)[C@@H]3O)[C@@H](O)[C@H]2O)C=CC1 [NADPH]
- spectrophotometric NADPH-dependent acceptor reduction (StnC (strep-tagged) [4]): The purified protein exhibited NADPH oxidation with methyl viologen, FAD, FMN and ferricyanide

- stoichiometry N [5]: 4
Compound: Sporomusa type Nfn (Stn) complex, heterotrimer of StnA, StnB and StnC
